Assay results: patent EP0315782A2, “Method for the production of proteins” (priority 1987, dated 1989)
Like-named read-outs stand apart in the source and are kept apart here.

How the values were obtained:
Assay type in all cases: cell-based, chinesische Hamster
[1] = tested on: CHO-Zellen; assay: t-PA production in transformed CHO cells, medium with 7.5% FKS, supernatant, direct chromogenic assay (DCA); settings: for Stimulierung der t-PA-Produktion: after 24 h
From the text: (§1) Der Vektor für die t-PA-Produktion wurde in einem Subklon, CHO-K1-DUX B11, integriert (Urlaub et al., Proceedings of the National Academy of Science, USA, 77: 4216-4220, 1980). Diese Zell-Linie, eine Dihydrofolat Reduktase negative Mutante (DHFR-), ist für eine DHFR-abhängige Selektion der transfizierten Zellklone geeignet. Der Vektor für die humane c-DNA kann ein bekannter Plasmid-Vektor pBR-322 oder deren Abkömmling von Escherichia coli sein. Die Promotorregion für das in Frage kommende Gen und für das DHFR-Gen stammt aus SV 40 und die Terminationsregion für beide Gene von einem Hepatitis B-Oberflächenantigen. In den Beispielen wurden CHO-K1-DUX B11-Zellen, die durch die Plasmide pETPER oder pEPEFR transformiert sind, verwendet (siehe EP-A 0117059).
(§2) Die Zellkulturen werden bei 37°C in einem Hereaus-Brutschrank inkubiert und mit einem Kohlendioxid-Luftgemisch von 7,5% CO₂ in einer relativen Luftfeuchtigkeit von 100% belüftet. Je nach Verfahrensansatz werden unterschiedliche Kulturgefäße benutzt: Spinnergefäße für 100-1000 ml Medium, Roux-Schalen (Nunc) 175 cm² (70-100 ml Medium), 75 cm² (30-50 ml Medium), 25 cm² (7-10 ml Medium) und Mehrfachkulturschalen von Costar mit 2 cm² für 1 ml Kulturen. Für die Stammhaltung werden die Zellen in einer Dichte von 0,2-0,3 x 10⁶ Zellen/ml eingesetzt und alle 2-3 Tage subkloniert.
(§3) Die Protein-Produktion stimulierenden Substanzen können zu den verschiedenen Zeitpunkten jeweils in einer 1:100 Verdünnung zugegeben werden, d.h. sie wurden zuerst in Medium gelöst oder, wenn sie schwerlöslich sind, erst in Äthylalkohol gelöst und danach in Medium zugesetzt und dann das diese Substanz enthaltende Medium dem zellenthaltenden Medium im Verhältnis 1:100 v/v zugegeben.
(§4) In den folgenden Beispielen wurden, um die Stimulierung der t-PA-Synthese hervorzurufen, Zellen einer exponentiell wachsenden Kultur entnommen und in Plastikröhrchen (Falcon) 10 Min. bei 1000 x g in einer Beckmann T 3-6 Zentrifuge abzentrifugiert. Nach Dekantieren des Überstandes wurde das Zellpellet mit frischem Medium resuspendiert.
Für die Produktion von t-PA in serumhaltigem Medium wurde als frisches Medium F12/DMEM + 7,5% FKS + Gentamycin verwendet. Die resultierende Suspension kann in 2 cm² 24 Wells-Platten bei einer Zelldichte von 0,2-0,3 x 10⁶ Zellen/ml angesetzt werden.
(§5) Aliquots von Zellüberständen und Zellextrakten wurden zu verschiedenen Zeitpunkten abgenommen bzw. hergestellt. Die Messung der Proben erfolgte entweder sofort oder nach Aufbewahrung bei -20°C mit folgenden Methoden:
Von dem synthetischen Peptidsubstrat S-2288 (D-H-Ile-Pro-Arg-p-Nitroanilin) der Firma Kabi Diagnostica wird durch das t-PA p-Nitroanilin als Reaktionsprodukt gebildet. Die Aktivität von t-PA ist zur Bildung von p-Nitroanilin proportional, die bei […], 37°C, gemessen wird.
Die spektrophotometrische Bestimmung der Enzymkinetik wurde mit einem ACP-5010-Analysengerät der Firma Eppendorf automatisch durchgeführt.
Die Aktivität des Enzyms wurde anhand dieses vorgegebenen Standards berechnet. Eine t-PA-Standardreihe von 1-15 µg/ml wurde mit einem Laborstandard hergestellt, der zu 72% aus 1-kettigem Material besteht.
Die Substratlösung (100 mM Tris/106 mM NaCl) wurde in einer Konzentration von 50 mM eingesetzt.

[2] = tested on: CHO-Zellen; assay: t-PA production in transformed CHO cells, medium and determination method not stated; settings: 10 mM; for activation at 10000 µM: CHO
From the text: as §1, §2, §3, §4
Aliquots von Zellüberständen und Zellextrakten wurden zu verschiedenen Zeitpunkten abgenommen bzw. hergestellt. Die Messung der Proben erfolgte entweder sofort oder nach Aufbewahrung bei -20°C mit folgenden Methoden: […]

[3] = tested on: CHO-Zellen; assay: t-PA production in transformed CHO cells, serum-free medium (DCA or determination method not given)
From the text: Diese Zell-Linie, eine Dihydrofolat Reduktase negative Mutante (DHFR-), ist für eine DHFR-abhängige Selektion der transfizierten Zellklone geeignet. […] Die Promotorregion für das in Frage kommende Gen und für das DHFR-Gen stammt aus SV 40 und die Terminationsregion für beide Gene von einem Hepatitis B-Oberflächenantigen.
Im folgenden Beispiel wird ein nachseziertes DMEM/Ham's F 12 Medium (1:1) (Gibco) als serumfreies Medium verwendet. Als Zusatz wird fötales Kälberserum (FKS) in einer Konzentration von 7,5% oder 1-2% verwendet.
as §2, §3, §4
Für die Produktion von t-PA in serumfreiem Medium wurden die Zellen zuvor 3-4 Tage in einem Medium von 1-2% FKS adaptiert, wieder abzentrifugiert und das Zellpellet in serumfreiem Medium resuspendiert und anschließend in 2 cm² 24 Wells-Platten in einer Zelldichte von 0,4-0,5 x 10⁶ Zellen/ml überführt.
as §5
Die Aktivität des Enzyms wurde anhand dieses vorgegebenen Standards berechnet.

[4] = Table 3, mean ± SE, n = 3-24, production runs of 3 to 4 days, acids added day 0 to 3, 1 ml supernatant vs control (0%), 7,5% FKS
[5] = Table 3, single sample, 1 ml supernatant vs control (0%), 7,5% FKS, its concentration, addition and sampling day in brackets in Tables 3/3A
[6] = Table 10, 7,5% FKS, bracketed value = concentration of the single sample
[7] = Table 10, mean ± SE, runs of 4 days, added day 1, sampled days 2-4, 7,5% FKS, 1 ml supernatant vs control (0%)
[8] = Table 10, single sample (added day 1, sampled day 4), 7,5% FKS, 1 ml supernatant vs control (0%)
[9] = Table 3, stimulation of t-PA synthesis, medium with 7,5% FKS, bracketed value = concentration of the single (maximum) sample
[10] = Table 4, Applikationstag 0, after 48 h growth, 7,5% FKS, 1 mM or 5 mM, 1 ml supernatant vs control (0%), mean ± SE
[11] = Table 4, Applikationstag 1, after 48 h growth, 7,5% FKS, 1 mM or 5 mM, 1 ml supernatant vs control (0%), mean ± SE
[12] = Table 7, mean ± SE, n = 4-9, runs of 4 days, acids added day 0, 7,5% FKS, 1 ml supernatant vs control (0%)
[13] = Table 7, single sample (added day 0, sampled day 2), 7,5% FKS, 1 ml supernatant vs control (0%)
[14] = Table 8, 7,5% FKS, bracketed value = concentration of the single sample
[15] = Table 8, mean ± SE, n = 6-19, runs of 3 days, added day 0 to 2, 7,5% FKS, 1 ml supernatant vs control (0%)
[16] = Table 8, single sample, 7,5% FKS, 1 ml supernatant vs control (0%)

O=CO [Ameisensäure, reference compound]
% Steigerung der t-PA-Synthese Durchschnitt [1, 4]: 6,5 ± 0,9%
% Steigerung der t-PA-Synthese Maximum [1, 5]: 7,4%
optimaler Dosisbereich ([1]; Table 3, stimulation of t-PA synthesis, medium with 7,5% FKS): 100 µM

O=C1O[C@H]([C@@H](O)CO)C(O)=C1O [Ascorbinsäure]
Wirkung auf die t-PA-Produktion hält an ([2]; duration of effect): 72 h
activation at 10000 µM ([2]; application day 0, after 24 h (Abb. 14), read-out: Steigerung der t-PA-Synthese): 15.2%

CCCC(=O)OCC[N+](C)(C)C.[Br-] [BCB, Butyrylcholinbromid]
optimaler Dosisbereich [1, 6]: 5-10 mM (2.5 mM)
% Steigerung der t-PA-Synthese Durchschnitt [1, 7]: 29,1 ± 4,4%
% Steigerung der t-PA-Synthese Maximum [1, 8]: 49,6%

CCCC(=O)OCC[N+](C)(C)C.[Cl-] [BCC, Butyrylcholinchlorid]
optimaler Dosisbereich [1, 6]: 5-10 mM ( 10 mM)
% Steigerung der t-PA-Synthese Durchschnitt [1, 7]: 38,8 ± 4,4%
% Steigerung der t-PA-Synthese Maximum [1, 8]: 63,9%

CCCC(=O)O [Buttersäure]
t-PA-Synthese, bezogen auf 1 x 10⁶ Zellen ([3]; serum-free medium (Abb. 13)): > 50 µg/ 1 x 10⁶ Zellen
% Steigerung der t-PA-Synthese Durchschnitt [1, 4]: 41,9 ± 3,8%
% Steigerung der t-PA-Synthese Maximum [1, 5]: 68,3%
optimaler Dosisbereich [1, 9]: 1-5 mM ( 1 mM)
Steigerung der t-PA-Produktion [1, 10]: 33,0 ± 5,4%
Steigerung der t-PA-Produktion [1, 11]: 40,2 ± 12,2%
Stimulierung der t-PA-Produktion ([1]; medium with 7,5% FKS (Abb. 7)): 18,1 ± 5,7%

CC(=O)C=C(C)CC(C)(C)O [DHO, 6-Hydroxy-4,6-Dimethyl-3-hepten-2-on]
t-PA Produktion nach der Behandlung ([3]; after 144 h): erhöht

CCCCCc1oc(CCCCCCCCC(=O)O)c(C)c1C [Furanfettsäure]
% Steigerung der t-Pa-Synthese Durchschnitt [1, 12]: 19,0 ± 3,2%
% Steigerung der t-Pa-Synthese Maximum [1, 13]: 32,1%

N[C@@H](CCC(=O)N[C@@H](CS)C(=O)NCC(=O)O)C(=O)O [Glutathion]
optimaler Dosisbereich [1, 14]: 1-10 µM (10µM)
% Steigerung der t-Pa-Synthese Durchschnitt [1, 15]: 16,0 ± 2,0%
% Steigerung der t-Pa-Synthese Maximum [1, 16]: 30,6%
effektiver Konzentrationsbereich ([1]; text b134): 1 to 10 µM

CC(C)C(=O)O [Isobuttersäure]
% Steigerung der t-PA-Synthese Durchschnitt [1, 4]: 16.6 ± 2,8%
% Steigerung der t-PA-Synthese Maximum [1, 5]: 32,9%
optimaler Dosisbereich [1, 9]: 0,6-10 mM (10 mM)
Steigerung der t-PA-Produktion [1, 10]: 20,1 ± 10,7%
Steigerung der t-PA-Produktion [1, 11]: 25,3 ± 5,1%
Produktionssteigerung erst nach ([1]; onset of the increase, medium with 7,5% FKS (Abb. 7)): 48 h

CC(C)CC(=O)O [Isovaleriansäure]
% Steigerung der t-PA-Synthese Durchschnitt [1, 4]: 18,7 ± 2,4%
% Steigerung der t-PA-Synthese Maximum [1, 5]: 39,3%
optimaler Dosisbereich [1, 9]: 1-20 mM ( 5 mM)
Steigerung der t-PA-Produktion [1, 10]: 17,2 ± 1,0%
Steigerung der t-PA-Produktion [1, 11]: 19,4 ± 1,5%
Stimulierung der t-PA-Produktion ([1]; medium with 7,5% FKS (Abb. 7)): 24,8 ± 0,5%
Steigerung der t-PA-Produktion ([1]; day 4, medium with 7,5% FKS (Abb. 7)): 8,5%

N[C@@H](CS)C(=O)O [L-Cystein]
optimaler Dosisbereich [1, 14]: 1-10 mM ( 1mM)
% Steigerung der t-Pa-Synthese Durchschnitt [1, 15]: 20,9 ± 3,4%
% Steigerung der t-Pa-Synthese Maximum [1, 16]: 41,4%
Maximalwert des Steigerungseffektes erreicht nach ([1]; time to maximal effect (Abb. 15)): 48 h

CC(O)CC1CCC(C(C)C(=O)O)O1 (stereo not drawn) [Nonactinsäure]
% Steigerung der t-Pa-Synthese Durchschnitt [1, 12]: 30,3 ± 6,5%
% Steigerung der t-Pa-Synthese Maximum [1, 13]: 58,3%

O=C(O)CSCC(=O)O [Thiodiglykolsäure]
% Steigerung der t-Pa-Synthese Durchschnitt [1]: 18,0 ± 3,8%
% Steigerung der t-Pa-Synthese Maximum [1]: 31,0%
optimaler Dosisbereich [1]: 1000 µM

O=C(O)C(O)C(O)C(=O)O (stereo not drawn) [Weinsäure]
activation at 10000 µM ([2]; read-out: Steigerung der t-PA-Synthese gegenüber der Kontrolle): 10.3%
